Data from PubChem BioAssay (NCI).
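Assay format: 96-well plates, 48-hour exposure. The concentration for 50% growth inhibition is given as GI50. Definition used: TGI = concentration required for complete inhibition of growth.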

Key:
Assay in all cases: NCI tumour cell line growth inhibition, 48 h
[1] = tested on: 786-0 renal
[2] = tested on: A498 renal
[3] = tested on: A549 NSCLC
[4] = tested on: ACHN renal
[5] = tested on: BT-549 breast
[6] = tested on: CAKI-1 renal
[7] = tested on: CCRF-CEM leukemia
[8] = tested on: COLO 205 colon
[9] = tested on: DU-145 prostate
[10] = tested on: EKVX NSCLC
[11] = tested on: HCC-2998 colon
[12] = tested on: HCT-116 colon
[13] = tested on: HCT-15 colon
[14] = tested on: HL-60(TB) leukemia
[15] = tested on: HOP-62 NSCLC
[16] = tested on: HOP-92 NSCLC
[17] = tested on: HS 578T breast
[18] = tested on: HT29 colon
[19] = tested on: IGROV1 ovarian
[20] = tested on: K-562 leukemia
[21] = tested on: KM12 colon
[22] = tested on: LOX IMVI melanoma
[23] = tested on: M14 melanoma
[24] = tested on: MALME-3M melanoma
[25] = tested on: MCF7 breast
[26] = tested on: MDA-MB-231 breast
[27] = tested on: MDA-MB-435
[28] = tested on: MOLT-4 leukemia
[29] = tested on: NCI-H226 lung
[30] = tested on: NCI-H23 lung
[31] = tested on: NCI-H460 lung
[32] = tested on: NCI-H522 lung
[33] = tested on: NCI/ADR-RES ovarian
[34] = tested on: OVCAR-3 ovarian
[35] = tested on: OVCAR-4 ovarian
[36] = tested on: OVCAR-5 ovarian
[37] = tested on: OVCAR-8 ovarian
[38] = tested on: PC-3 prostate
[39] = tested on: RPMI-8226 leukemia
[40] = tested on: RXF 393 renal
[41] = tested on: SF-268 CNS
[42] = tested on: SF-295 CNS
[43] = tested on: SF-539 CNS
[44] = tested on: SK-MEL-2 melanoma
[45] = tested on: SK-MEL-28 melanoma
[46] = tested on: SK-MEL-5 melanoma
[47] = tested on: SK-OV-3 ovarian
[48] = tested on: SN12C renal
[49] = tested on: SNB-19 CNS
[50] = tested on: SNB-75 CNS
[51] = tested on: SW-620 colon
[52] = tested on: T-47D breast
[53] = tested on: TK-10 renal
[54] = tested on: U251 CNS
[55] = tested on: UACC-257 melanoma
[56] = tested on: UACC-62 melanoma
[57] = tested on: UO-31 renal

Compound `Nc1ccc2c(c1)c(N)nn2C(=O)Nc1ccc(Cc2ccccc2)cc1` has a GI50 [1] of 12.4 µM, a TGI [1] of 25.9 µM and a GI50 [2] of 14.4 µM. The TGI [2] was 28.4 µM, the GI50 [3] was 6.58 µM and the TGI [3] was 57.1 µM. The GI50 [4] was 3.37 µM, the TGI [4] was 13.7 µM and the GI50 [5] was 14.6 µM. The TGI [5] was 33.5 µM, the GI50 [6] was 4.3 µM and the TGI [6] was 26.8 µM. For the same compound, the GI50 [7] was 2.07 µM, the TGI [7] was 18.8 µM and the GI50 [8] was 13.1 µM. For the same compound, the TGI [8] was 26.5 µM, the GI50 [9] was 10.9 µM and the TGI [9] was 24 µM. It also gave a GI50 [10] of 14 µM, a TGI [10] of 36.7 µM and a GI50 [11] of 4.17 µM. It also gave a TGI [11] of 14.8 µM, a GI50 [12] of 6.79 µM and a TGI [12] of 20.8 µM. The GI50 [13] was 2.75 µM, the TGI [13] was 14.2 µM and the GI50 [14] was 3.46 µM. It also gave a TGI [14] of 17.2 µM, a GI50 [15] of 11.2 µM and a TGI [15] of 27 µM. It also gave a GI50 [16] of 10.4 µM, a TGI [16] of 24.4 µM and a GI50 [17] of 17.3 µM. It also gave a TGI [17] of 43 µM, a GI50 [18] of 4.51 µM and a TGI [18] of 17.2 µM. The GI50 [19] was 16.4 µM, the TGI [19] was 54.1 µM and the GI50 [20] was 2.24 µM. For the same compound, the TGI [20] was 11.4 µM, the GI50 [21] was 3.34 µM and the TGI [21] was 15.1 µM. For the same compound, the GI50 [22] was 3.38 µM, the TGI [22] was 16 µM and the GI50 [23] was 4.59 µM. It also gave a TGI [23] of 17.8 µM, a GI50 [24] of 18 µM and a TGI [24] of 89.8 µM. The GI50 [25] was 6.92 µM, the TGI [25] was 26.5 µM and the GI50 [26] was 7.74 µM. For the same compound, the TGI [26] was 22.7 µM, the GI50 [27] was 7.36 µM and the TGI [27] was 23.8 µM. For the same compound, the GI50 [28] was 4.48 µM, the TGI [28] was 24.3 µM and the GI50 [29] was 16.1 µM. It also gave a TGI [29] of 38.3 µM, a GI50 [30] of 16.9 µM and a TGI [30] of 39.5 µM. For the same compound, the GI50 [31] was 4.64 µM, the TGI [31] was 23.8 µM and the GI50 [32] was 14.7 µM. The TGI [32] was 39.6 µM, the GI50 [33] was 17.4 µM and the TGI [33] was 75.1 µM. For the same compound, the GI50 [34] was 12.1 µM, the TGI [34] was 28.3 µM and the GI50 [35] was 8.29 µM. It also gave a TGI [35] of 24.1 µM, a GI50 [36] of 22.6 µM and a TGI [36] of 60.5 µM. The GI50 [37] was 20.2 µM, the TGI [37] was over 100 µM and the GI50 [38] was 4.33 µM. The TGI [38] was 24 µM, the GI50 [39] was 5.14 µM and the TGI [39] was 35 µM. For the same compound, the GI50 [40] was 21.4 µM, the TGI [40] was 43.9 µM and the GI50 [41] was 13 µM. It also gave a TGI [41] of 30.7 µM, a GI50 [42] of 3.96 µM and a TGI [42] of 15.1 µM. It also gave a GI50 [43] of 8.7 µM, a TGI [43] of 22.1 µM and a GI50 [44] of 26.1 µM. It also gave a TGI [44] of 48.5 µM, a GI50 [45] of 13.7 µM and a TGI [45] of 27.8 µM. The GI50 [46] was 6.52 µM, the TGI [46] was 19.8 µM and the GI50 [47] was 15.3 µM. The TGI [47] was 37.7 µM, the GI50 [48] was 13.4 µM and the TGI [48] was 30.9 µM. It also gave a GI50 [49] of 13.9 µM, a TGI [49] of 27.3 µM and a GI50 [50] of 17.4 µM. For the same compound, the TGI [50] was 31.5 µM, the GI50 [51] was 4.48 µM and the TGI [51] was 18.7 µM. For the same compound, the GI50 [52] was 5.8 µM, the TGI [52] was 22.8 µM and the GI50 [53] was 19.4 µM. For the same compound, the TGI [53] was 46 µM, the GI50 [54] was 6.53 µM and the TGI [54] was 20.9 µM. The GI50 [55] was 14.5 µM, the TGI [55] was 29.7 µM and the GI50 [56] was 2.9 µM. For the same compound, the TGI [56] was 12.6 µM, the GI50 [57] was 4.72 µM and the TGI [57] was 32.6 µM.
Work on `CN1C(=O)C(O)CC1c1cccc(C(F)(F)F)c1` (stereo unspecified) yielded a TGI [1] of over 100 µM, a TGI [2] of over 100 µM and a TGI [3] of over 100 µM. For the same compound, the TGI [4] was over 100 µM, the TGI [5] was over 100 µM and the TGI [6] was over 100 µM. It also gave a TGI [7] of over 100 µM, a TGI [8] of over 100 µM and a TGI [9] of over 100 µM. The TGI [10] was over 100 µM, the TGI [11] was over 100 µM and the TGI [12] was over 100 µM. For the same compound, the TGI [13] was over 100 µM, the TGI [14] was over 100 µM and the TGI [15] was over 100 µM. The TGI [16] was over 100 µM, the TGI [17] was over 100 µM and the TGI [18] was over 100 µM. For the same compound, the TGI [19] was over 100 µM, the TGI [20] was over 100 µM and the TGI [21] was over 100 µM. It also gave a TGI [22] of over 100 µM, a TGI [23] of over 100 µM and a TGI [24] of over 100 µM. For the same compound, the TGI [25] was over 100 µM, the TGI [26] was over 100 µM and the TGI [27] was over 100 µM. The TGI [28] was over 100 µM, the TGI [29] was over 100 µM and the TGI [30] was over 100 µM. The TGI [31] was over 100 µM, the TGI [32] was over 100 µM and the TGI [33] was over 100 µM. The TGI [34] was over 100 µM, the TGI [35] was over 100 µM and the TGI [36] was over 100 µM. For the same compound, the TGI [37] was over 100 µM, the TGI [38] was over 100 µM and the TGI [39] was over 100 µM. It also gave a TGI [40] of over 100 µM, a TGI [41] of over 100 µM and a TGI [42] of over 100 µM. For the same compound, the TGI [43] was over 100 µM, the TGI [44] was over 100 µM and the TGI [45] was over 100 µM. It also gave a TGI [46] of over 100 µM, a TGI [47] of over 100 µM and a TGI [48] of over 100 µM. For the same compound, the TGI [49] was over 100 µM, the TGI [50] was over 100 µM and the TGI [51] was over 100 µM. The TGI [52] was over 100 µM, the TGI [53] was over 100 µM and the TGI [54] was over 100 µM. For the same compound, the TGI [55] was over 100 µM, the TGI [56] was over 100 µM and the TGI [57] was over 100 µM.
